Earlier results, collected in patent publication US20230149829A1, “ORAL COMPOSITIONS OF PLANTS THROUGH A DOUBLE EXTRACTION SYSTEM AND METHODS OF MAKING THE SAME” (Nulixir Inc., priority 2021, published 2023).

Assays:
[1] = n-octanol and water; categorization assumed at pH=7 unless stated otherwise
[2] = tested on: many strains of fungi

CC(C)=C[C@@H]1CO[C@]23C[C@]4(CO2)[C@H](CC[C@@H]2[C@@]5(C)CC[C@H](O[C@@H]6OC[C@H](O)[C@H](O[C@@H]7O[C@H](CO)[C@@H](O)[C@H](O)[C@H]7O)[C@H]6O[C@@H]6O[C@@H](CO)[C@H](O)[C@H]6O)C(C)(C)[C@@H]5CC[C@]24C)[C@H]3[C@@]1(C)O [bacopasaponin C]
log P [1]: ~2

hericerin
log P [1]: ~6.4

CC(C)=C[C@H]1C[C@](C)(O)[C@@H]2[C@H]3CC[C@@H]4[C@@]5(C)CC[C@H](O[C@@H]6OC[C@H](O)[C@H](O[C@@H]7O[C@H](CO)[C@@H](O)[C@H](O)[C@H]7O)[C@H]6O[C@@H]6O[C@@H](CO)[C@H](O)[C@H]6O)C(C)(C)[C@@H]5CC[C@@]4(C)[C@@]34CO[C@@]2(C4)O1 [bacopaside X]
log P [1]: ~2.2

methylliberine
log P [1]: ~−0.083

CC(=O)OC1C=CC(=O)N(C(=O)CCc2ccccc2)C1 (stereo not drawn) [pipermethystine]
log P [1]: ~1.8

COc1ccc(CCc2cc(OC)cc(=O)o2)cc1 [7,8-dihydroyangonin]
log P [1]: ~2.9

CC(C)=C[C@H]1C[C@](C)(O)[C@H]2[C@H]3CC[C@@H]4[C@@]5(C)CC[C@H](O[C@@H]6O[C@H](CO)[C@@H](O)[C@H](O[C@@H]7O[C@H](CO)[C@@H](O)[C@H](O)[C@H]7O)[C@H]6O[C@@H]6O[C@@H](CO)[C@H](O)[C@H]6O)C(C)(C)[C@@H]5CC[C@@]4(C)[C@@]34CO[C@@]2(C4)O1 [bacoside A3]
log P [1]: ~2.1

COc1ccc([C@@]23C=CC(=O)C[C@@H]2N(C)CC3)cc1OC [mesembrenone]
log P [1]: ~1.3

COc1ccc(C23C=CC(O)CC2N(C)CC3)cc1OC (stereo not drawn) [mesembrenol]
log P [1]: ~2.4

COc1cc([C@H]2Oc3cc(O)c4c(=O)c(O)c(-c5ccc(O)cc5)oc4c3O[C@@H]2CO)ccc1O [rhodiolin]
log P [1]: ~2

COc1cc(/C=C\c2ccc(OC)c(O)c2)oc(=O)c1 [11-hydroxyyangonin]
log P [1]: ~2.2

O=CC=Cc1ccccc1 [Cinnamaldehyde]
inhibitory activity against fungi [2]: strong inhibitory activity

COc1ccc([C@@]23CCC(=O)C[C@@H]2N(C)CC3)cc1OC [mesembrine]
log P [1]: ~1.5

COC1=CC(=O)OC(/C=C/c2ccc(OC)cc2)C1 (stereo not drawn) [5,6-dihydroyangonin]
log P [1]: ~2.5

CC(C)=CCC[C@](C)(O[C@@H]1O[C@H](CO)[C@@H](O)[C@H](O)[C@H]1O)[C@H]1CC[C@]2(C)[C@@H]1[C@H](O)C[C@@H]1[C@@]3(C)CC[C@H](O)C(C)(C)[C@@H]3[C@@H](O[C@@H]3O[C@H](CO)[C@@H](O)[C@H](O)[C@H]3O)C[C@]12C [ginsenoside rg1]
log P [1]: ~0.8

(R)-kawain
log P [1]: ~2.7

COc1cc2c(c(OC)c1OC)-c1c(cc(OC)c(OC)c1OC)C[C@H](C)[C@H](C)C2 [(−)-schisandrin A]
log P [1]: ~3.6

bacopaside B
log P [1]: ~2.8

CC(C)=CCC[C@](C)(O[C@@H]1O[C@H](CO[C@@H]2O[C@H](CO)[C@@H](O)[C@H](O)[C@H]2O)[C@@H](O)[C@H](O)[C@H]1O)[C@H]1CC[C@]2(C)[C@@H]1[C@H](O)C[C@@H]1[C@@]3(C)CC[C@H](O[C@@H]4O[C@H](CO)[C@@H](O)[C@H](O)[C@H]4O[C@@H]4O[C@H](CO)[C@@H](O)[C@H](O)[C@H]4O)C(C)(C)[C@@H]3CC[C@]12C [ginsenoside rb1]
log P [1]: ~−1

schisandroside C
log P [1]: ~1.6

tortuosomine
log P [1]: ~3

herinacine A
log P [1]: ~2.5

N#C[C@@]1(O[C@@H]2O[C@H](CO)[C@@H](O)[C@H](O)[C@H]2O)C=C[C@@H](O)C1 [tetraphyllin B]
log P [1]: ~−2.5

COc1cc2c(c(OC)c1OC)-c1c(cc(OC)c(OC)c1OC)C[C@](C)(O)[C@@H](C)C2 [(+)-schisandrin]
log P [1]: ~5

COC1=CC(=O)O[C@@H](CCc2ccc3c(c2)OCO3)C1 [7,8-dihydromethysticin]
log P [1]: ~2.2

COc1cc2c(c(OC)c1OC)-c1c(cc3c(c1OC)OCO3)CC(C)C(C)C2 (single isomer, unassigned; (-)) [(−)-schisandrin B]
log P [1]: ~4

CC1=C(CO)C(=O)O[C@@H]([C@@H](C)[C@H]2CC[C@H]3[C@@H]4C[C@H](Cl)[C@]5(O)[C@@H](O)C=CC(=O)[C@]5(C)[C@H]4CC[C@]23C)C1 [6a-chloro-5b-hydroxywithaferin A]
log P [1]: ~3.2
